According to patent US20250221981A1, “MAT2A INHIBITOR AND/OR TSG101 INHIBITOR FOR USE IN ANTIVIRAL THERAPY” (CAMBRIDGE ENTERPRISE LIMITED, priority 2022, published 2025):

Tests used:
RPTE/hTERT cells = assay: Cell viability assay, CellTiter-Blue fluorescence
Description: RPTE/hTERT cells were treated with MAT2A inhibitors at increasing concentrations for 48 hrs and assayed for cell viability using CellTiter-Blue fluorescence. Experiments were conducted using biological triplicates.
Experiment was conducted using biological triplicates.
Cell viability was assessed using the Cell-Titer-Blue assay (Promega), following manufacturers guidelines.

BKPyV [1] = assay: Western blot of BKPyV viral protein expression (LTAg, VP1) in RPTE/TERT1 cells; format: cell-based, BK polyomavirus; settings: MOI 1
Description: (C)(i) Effect of PF-9366 on viral early and late gene and cellular MAT2A expression: Cells were infected with BKPyV (MOI 3) in media containing appropriate drug concentrations. At 1 hpi infectious media was removed, cells were washed and fresh media with appropriate drug concentrations was added. Cells were harvested at 48 hpi and a western blot performed. Membranes were blotted for viral late gene VP1, LTAg, cellular MAT2A/MAT1A, and tubulin as a loading control.
(iii) Viral gene expression is modulated in response to PF-9366: The density of BKPyV VP1 and LTAg expression were measured, normalized to tubulin loading control (LiCor Image Studio Software), n=3.
(§1) Cells were treated with MAT2A inhibitors at 1 hr post infection and were harvested at 48 hr post infection at MOI 1. (A) Total infectious BKPyV synthesis expressed as fold change to DMSO control (FFU titre assay). (B) Total viral protein expression (LTAg and VP1) was analysed by western blot. Tubulin was used as loading control. All error bars represent SEM. Two sample paired T-test was used to determine significance (*p<0.05; **p<0.01; ***p<0.001, ****p<0.0001), all numerical data shown were obtained over 2 independent experiments.
(§2) RPTE/hTERT cells were treated with inhibitors at 1 hr post infection (PI), infected at MOI 1. (A) Viral growth curves using FFU titre assay in drug treated and untreated cells infected with BKPyV at MOI 1 for 48 hr PI, 72 hr PI and 96 hr PI. (B) Total viral protein expression (LTAg and VP1) from drug treatments and untreated control was analysed by western blot with samples harvested at 48 hr PI and 96 hr PI. Tubulin was used as loading control. All error bars represent SEM. All numerical data shown were obtained over 2 independent experiments.
It has previously been noted by Quinlan et al. (Nat Chem Biol. 2017 13 (7): 785-792) that treatment with PF-9366 can increase MAT2A expression as a compensatory mechanism within cells. To investigate this, cells were once again treated with a range of PF-9366 for 3 hours prior to infection (or DMSO treated). Cells were infected with BKPyV (MOI 3), washed at 1 hpi, and fresh drug treated media was added. At 48 hpi cells were harvested and protein expression was analysed by western blotting (FIG. 3C(i)). MAT2A expression was quantified from band intensities, normalised to the tubulin loading control and plotted (FIG. 3C(ii), n=3). A clear increase in the cellular expression of MAT2A was observed, up to an 8-fold increase at 10 μM PF-9366. Western blot analysis was also conducted on early viral gene (LTAg) and late viral gene (VP1) expression (FIG. 3C(iii), n=3).
Cell lysate preparation and western blots were performed as described in Ren et al. (J Gen Virol. 2012 February; 93 (Pt 2): 319-329). Primary antibodies used were ab53977 (VP1), PAb416 (LTAg), sc-166452 (MAT2A/1A), ab110226 (VP16), sc-53070 (ICP0), anti-Zika E Protein, and either anti-GAPDH or anti-tubulin as a loading control, followed by IRDye 680LT-, or IRDye 800CW-conjugated secondary antibodies. Imaging was performed using the LI-COR Odyssey Infrared Imaging system. Quantification was performed using LI-COR Image Studio Software.

BKPyV [2] = assay: Fluorescence focus unit (FFU) assay of infectious BKPyV from treated RPTE/TERT1 cells; format: cell-based, BK polyomavirus; settings: added 1 hr post infection, MOI 1
Description: (B) Effect of PF-9366 on viral replication: Cells were infected with BKPyV (MOI 1) in media containing appropriate drug concentrations. At 1 hpi infectious media was removed, cells were washed and fresh media with appropriate drug concentrations was added. At 48 hpi cells were harvested and infectious BKPyV was measured by FFU assay. n=3.
as §1, §2
The ability for PF-9366 to inhibit the production of infectious virus was then investigated. RPTE/TERT1 cells were once again treated with a concentration range of PF-9366 or DMSO as a control prior to infection, and as before, infected with BKPyV (MOI 1) then washed and media replaced at 1 hpi. At 48 hpi total virus was harvested from each condition and an FFU assay was conducted to determine BKPyV virus titre (FIG. 3B).
For BKPyV infections, RPTE/TERT1, RPTE/TERT1-Cas9 or RPTE/TERT1 MAT2A KO cells were infected with BKPyV at either a multiplicity of infection (MOI) of 5 for growth curves or an MOI of 3 or 1 for all other experiments, diluted in appropriate medium. At 1 hour post infection (hpi) medium was removed, cells were washed twice with phosphate-buffered saline (PBS), and fresh medium was added with or without inhibitors. At 24, 48, 72 or 96 hpi cells were either harvested for western blot, RT qPCR or virus titre by FFU assay, or fixed for immunofluorescence analysis.
FFU assays were used to determine the concentration of infectious BKPyV in experimental samples. RPTE/TERT1 cells were infected with sample dilutions, fixed at 48 hpi in 3% formaldehyde, and immunostained for VP1 expression as described in Evans et al. (Open Biol. 2015 August; 5 (8): 150041).
Example 1: PF-9366 (Sigma-Aldrich) and AG-270 (kindly supplied by Astra Zeneca) were diluted in 100% DMSO. Cells were drug treated at a range of concentrations in REBM supplemented with BulletKit (Lonza) for 3 hours prior to infection. Cells were infected with BK-Dunlop in media and appropriate drug dilution. At 1 hpi infectious media was removed, cells gently washed with PBS and media containing appropriate drug dilutions was added. At 48 hpi cells were either fixed in 3% formaldehyde for microscopy, or harvested by scraping up into fresh drug-free media.
TSG101 inhibitor Ilaprazole (Sigma-Aldrich) was diluted in 100% DMSO. Cells were treated at a range of inhibitor concentrations and combinations, in appropriate media for the cell type used, for either 3 hours prior to infection (HSV-1, Alphavirus and Flavivirus infections) or 1 hour post infection (BKPyV infection).

[3] = 125 nM to 1 μM, dose dependent, 48 hr post infection

| SMILES | effect on cell viability and metabolism (RPTE/hTERT cells; at concentrations inhibiting BKPyV replication, 48 hrs) | early viral protein (LTAg) levels (western blot) (BKPyV [1]; [3]) | late viral protein (VP1) levels (western blot) (BKPyV [1]; [3]) | inhibition of BKPyV replication (total infectious BKPyV, FFU titre) (BKPyV [2]; 125 nM, 250 nM, 500 nM and 1 μM, 48 hr post infection) | effect on cell viability (RPTE/hTERT cells; Ilaprazole alone, every 48 hr until 144 hr) | BKPyV protein expression (LTAg and VP1, western blot) (BKPyV [1]; Ilaprazole alone, 48 and 96 hr PI) | BKPyV viral replication (FFU titre) (BKPyV [2]; Ilaprazole alone) |
| --- | --- | --- | --- | --- | --- | --- | --- |
| CN(C)c1nc(=O)n(-c2ccccc2)c2cc(Cl)ccc12 [AZ28] | little effect | reduced | reduced | significant dose dependent inhibition | – | – | – |
| COc1ccnc(C[S+]([O-])c2nc3cc(-n4cccc4)ccc3[nH]2)c1C (stereo not shown) [Ilaprazole] | – | – | – | – | little effect | significantly inhibit | significantly inhibit |
